Structures can show the parent of a compound that is named as a salt. Where two headings read alike, the source gives them in different places.
How the values were obtained:
Yoshida sarcoma [1] = format: in vivo, rat (male Sprague-Dawley rats); conditions: for increase in tumor-free animals (cures) above controls: CP (exp. 1-3), BCNU, MeCCNU 45, dimethylmorpholine-CNU 45, piperidino-CNU 15, picolyl-3-CNU.HCl 25 mg/kg
Method: The chemotherapeutic activity of nitrosoureas was compared in antitumor tests using Yoshida sarcoma ascited cells implanted into the wall of the descending colon in Sprague-Dawley rats.
(§1) Male Sprague-Dawley rats were used in the experiments. Yoshida sarcome in ascites form was maintained in the same strain of rats by serial intraperitoneal injection of 0,5 ml of ascites fluid.
(§2) 3×10^6 cells were injected into the colon wall in a manner known per se. The chemotherapeutic treatment was carried out on the eighth day after implantation of the tumor cells.
(§3) Water-insoluble compounds were dissolved in Cremophor EL/ethanol/physiological saline (20:20:60: vol.%). Water-soluble substances were dissolved in physiological saline. Cremophor EL is a surfactant on the basis of polyethoxylated castor oil. All test compounds were administered introperitoneally. The nitrosoureas were applied at approximately equitoxic doses corresponding to about 80% of the acute LD50 values observed in healthy rats of the same strain over a 28-day observation period.
(§4) Each experiment involved an untreated control group and a varying number of treated groups. Individual survival times were counted as days after tumor inoculation. At the time of death a record of whether an animal was tumor-free or not was made. All animals alive 120 days after tumor inoculation were killed. Animals that according to macroscopic examination had no tumor at the end of the experiment were considered as cured. Since in a number of control rats also no tumors occurred after 120 days the differences in cures between controls and treated animals rather than absolute numbers are reported. Differences in survival were evaluated statistically by individual comparisons between treated rats and controls using a nonparametric log-rank test (Kalbfleisch and Prentice, The statistical analysis of failure time data, Wiley, New York, 1979). Numerical evaluation was performed using a computerized system.

Yoshida sarcoma [2] = conditions: previous experiments; i.p.; cited from earlier work
[3] = Toxicity in treated tumor-bearing rats (Yoshida sarcoma experiments); format: in vivo, rat (Sprague-Dawley rats)
Method: as §1, §2, §3, §4

[4] = Mean animal weight / weight gain after tumor transplantation; format: in vivo, rat (Sprague-Dawley rats); conditions: CP 70 (exp. 1-3), BCNU 25, MeCCNU 45 (exp. 1), picolyl-3-CNU 25, its HCl 25 (exp. 2), morpholino-CNU 28, piperidino-CNU 15 (exp. 3), dimethylmorpholino-CNU 45 mg/kg (exp. 4); for Mean animal weight on day 50: day 50 after tumor transplantation; for Mean animal weight on day 100: day 100 after tumor transplantation
Method: as §1, §2, §3
In all treated animals and at all doses tested the mean weight gain was lower than in the controls. Table 3 gives the mean animal weights measured 50 and 100 days after tumor transplantation in experiments 1 to 5.

[5] = Experiment 1, CP 70, BCNU 25, MeCCNU 45 mg/kg
[6] = Experiment 1, CP 70, BCNU 25, MeCCNU 45 mg/kg, initial animals CP 30, BCNU 30, MeCCNU 29
[7] = Experiment 1, i.p. day 8, CP 70, BCNU 25, MeCCNU 45 mg/kg
[8] = Experiment 2, CP 70, picolyl-3-CNU 25, picolyl-3-CNU.HCl 25 mg/kg
[9] = Experiment 2, CP 70, picolyl-3-CNU 25, picolyl-3-CNU.HCl 25 mg/kg, 30 initial animals each
[10] = Experiment 2, i.p. day 8, CP 70, picolyl-3-CNU 25, picolyl-3-CNU.HCl 25 mg/kg
[11] = Experiment 5, CP 70, picolyl-3-CNU.HCl 25, morpholino-CNU 28, piperidino-CNU 15 mg/kg
[12] = Experiment 5, CP 70, picolyl-3-CNU.HCl 25, morpholino-CNU 28, piperidino-CNU 15 mg/kg, 15 initial animals (picolyl-3-CNU.HCl 14)

Row | SMILES | increase in tumor-free animals (cures) above controls (Yoshida sarcoma [1]; 120 days) [%] | Mean animal weight on day 50 [4] [g] | Mean animal weight on day 100 [4] [g] | % M (median survival time, untreated control = 100) (Yoshida sarcoma [1]; [8]) [%] | D1-120 = difference (%) between tf1-120 of treated and untreated animals (Yoshida sarcoma [1]; [8]) [%] | D120 = difference (%) between tf120 of treated and untreated animals (Yoshida sarcoma [1]; [8]) [%] | tf1-120 (%) (tf120 + animals dying of toxicity) (Yoshida sarcoma [1]; [8]) | tf120 (%) (animals surviving day 120 without tumor) (Yoshida sarcoma [1]; [8]) | tf1-120, No. (tf120 + animals dying of toxicity) (Yoshida sarcoma [1]; [9]) | tf120, No. (animals surviving day 120 without tumor) (Yoshida sarcoma [1]; [9]) | M = median survival time (Yoshida sarcoma [1]; [10]) [days] | further results
1 | CC1CCC(NC(=O)N(CCCl)N=O)CC1 (centres unmarked) [MeCCNU, 1-(2-chloroethyl)-3-(4-methylcyclohexyl)-1-nitrosourea] | 8 | 280 | 300 | – | – | – | – | – | – | – | – | tumor-free animals at the end of the experiment (in words) (Yoshida sarcoma [1]; 120 days): increased the rate of tumor-free animals alive at the end of the experiment; D1-120 = difference (%) between tf1-120 of treated and untreated animals (Yoshida sarcoma [1]; [5]): 27%; D120 = difference (%) between tf120 of treated and untreated animals (Yoshida sarcoma [1]; [5]): 8%; tf1-120 (%) (tf120 + animals dying of toxicity) (Yoshida sarcoma [1]; [5]): 52%; tf120 (%) (animals surviving day 120 without tumor) (Yoshida sarcoma [1]; [5]): 33%; tf1-120, No. (tf120 + animals dying of toxicity) (Yoshida sarcoma [1]; [6]): 15; tf120, No. (animals surviving day 120 without tumor) (Yoshida sarcoma [1]; [6]): 10; % M (median survival time, untreated control = 100) (Yoshida sarcoma [1]; [7]): 130%; M = median survival time (Yoshida sarcoma [1]; [7]): 60 days; activity against Yoshida sarcoma, shown previously (in words) (Yoshida sarcoma [2]): active; toxicity (in words) ([3]; at the doses tested): obviously toxic; mortality at 2880 h ([3]; rat, in vivo, ip, 45 mg/kg, read-out: animals died without a tumor before day 120): 19%
2 | O=NN(CCCl)C(=O)NCc1cccnc1 [Picolyl-3-CNU, 1-(2-chloroethyl)-1-nitroso-3-(methylene-3-pyridyl)-urea] | – | 250 | 250 | 130 | 1 | -2 | 23 | 20 | 7 | 6 | 28 | water solubility (in words) (Water solubility): water-insoluble
3 | O=NN(CCCl)C(=O)NCc1cccnc1 [Picolyl-3-CNU.HCl, [1-(2-chloroethyl)-1-nitroso-3-(methylene-3-pyridilium)-ureido]-chloride] | 15 | 250 | 260 | 125 | 18 | 15 | 40 | 37 | 12 | 11 | 27 | % M (median survival time, untreated control = 100) (Yoshida sarcoma [1]; [11]): 150%; D1-120 = difference (%) between tf1-120 of treated and untreated animals (Yoshida sarcoma [1]; [11]): 0%; D120 = difference (%) between tf120 of treated and untreated animals (Yoshida sarcoma [1]; [11]): 0%; tf1-120, No. (tf120 + animals dying of toxicity) (Yoshida sarcoma [1]; [12]): 0; tf120, No. (animals surviving day 120 without tumor) (Yoshida sarcoma [1]; [12]): 0; M = median survival time (Yoshida sarcoma [1]; Experiment 5, i.p. day 8, CP 70, picolyl-3-CNU.HCl 25, morpholino-CNU 28, piperidino-CNU 15 mg/kg): 15 days; effect on survival time / life expectancy (in words) (Yoshida sarcoma [1]; experiments 1-4, MeCCNU 45, morpholino-CNU 28 (exp. 3 and 5), dimethylmorpholine-CNU 45, piperidino-CNU 15, picolyl-3-CNU 25, picolyl-3-CNU.HCl 25 mg/kg): without resulting in a significant increase in survival

Source: patent publication US4377687A, “Analogs of 1-(2-chloroethyl)-1-nitroso-3-(cycloheyl)-urea substituted by heterocyclic rings or alkyl radicals” (Stiftung Deutsches Krebsforschungszentrum, priority 1978, dated 1983)
